From patent US20260207625A1, “New medical use of 3a-ethynyl-3ß hydroxyandrostan-17-one oxime” (priority 2022, published 2026)

Columns and labels:
6-OHDA rat model [1] = test: Anxiety, open arena test; type: in vivo; settings: 6-OHDA rats; 50 mg/kg daily intragastric; 5 weeks after surgery, 10 days of treatment
Text: (§1) The unilaterally 6-hydroxydopamine (6-OHDA) rat model according to Carvalho M et al. in Molecular Neurodegeneration 2013, 8:14; pp. 1-11, was used.
(§2) Under isoflurane (5% induction and then 2%) anesthesia the animals were placed on a stereotaxic frame with non-traumatic ear bars (Stoelting, USA), and unilaterally injected (left hemisphere) using an 30-gauge needle Hamilton syringe (Hamilton Company, Switzerland), with either vehicle (sham group, n=20) or 6-OHDA hydrochloride (Sigma, USA) (6-OHDA group, n=40) directly into the medial forebrain bundle (coordinates related to Bregma, AP=−4.4 mm; ML=−1.0 mm; DV=−7.8 mm; according to (Paxinos G, Watson C. The Rat Brain in Stereotaxic Coordinates. 4. San Diego, USA: Academic; 1998).
(§3) At a rate of 1 μl/min, sham animals received 2 μl of 0.2 mg/ml ascorbic acid in 0.9% NaCl, and 6-OHDA animals were injected with 2 μl 6-OHDA hydrochloride (4 μg/μl) with 0.2 mg/ml ascorbic acid in 0.9% NaCl. After injection the syringe was left in place for 10 minutes to allow diffusion.
(§4) Rats positive in the apomorphine-induced rotation test (20 animals) were included in the study, together with 20 sham-operated controls. […]
Anxiety was evaluated in an open arena during five minutes by measuring the time that the rat remains in the central zone, instead of close to the walls of the box, where the rats feel safer. […]

[2] = tested on: 6-OHDA rats treated with L-DOPA; test: L-dopa Induced Dyskinesia (LID) rat model, Abnormal Involuntary Movements (AIMs); type: in vivo; settings: 6 weeks of daily L-DOPA, 3 weeks of oral golexanolone, compared to group receiving only L-DOPA
Procedure: The ability of golexanolone to reduce or eliminate L-dopa Induced Dyskinesia (LID) was analyzed. This test is described in FIG. 14.
L-dopa Induced Dyskinesia (LID) was induced in a rat model described by Loiodice et al in ACS Chem Neurosci. 2018 Apr. 18; 9(4): pp. 762-772. Abnormal Involuntary Movements (AIM) was measured.
Rats positive in the apomorphine test received daily L-DOPA treatment starting 4 weeks after surgery and oral golexanolone treatment starting 7 weeks after surgery.
The experiment included the following groups: • 1) 6-OHDA rats treated with L-DOPA and receiving vehicle; • 2) 6-OHDA rats treated with golexanolone and treated with L-DOPA (n=12 per group). The appearance of a variety of AIMs were analyzed after 6 weeks of daily L-DOPA injections, and 3 weeks of golexanolone treatment, as described in Lundblad M et al; Eur J Neurosci. 2002 January; 15(1): pp. 120-132, and Loiodice et al in ACS Chem Neurosci. 2018 Apr. 18; 9(4): pp. 762-772.
Axial AIMs, limb AIMs, orolingual AIMs and locomotive AIMs were evaluated. One hour after the daily dose of golexanolone, L-DOPA was injected and AIMs were analyzed every 20 minutes for a total of three hours, as shown in FIG. 15.
As shown in this graph, there were less AIMs in the group of animals treated with golexanolone compared to the group who received only L-DOPA.

6-OHDA rat model [3] = test: Fatigue in treadmill test, 6-OHDA rats; type: in vivo; settings: golexanolone 50 mg/kg daily intragastric, 5 weeks after surgery, 9 days of treatment
Text: A 6-OHDA rat model as described by Heo et al. (Curr Biol. 2020 Jan. 20; 30(2): pp. 276-291) and by Carvalho et al. (Mol. Neurodegener. 2013, 8: 14: Behavioral characterization of the 6-hydroxidopamine model of Parkinson's disease and pharmacological rescuing of non-motor deficits) is used.
as §1
Eight week old Wistar-Han male rats (56 animals) (Charles River, Barcelona) were housed, two per cage, under standard laboratory conditions: 12 hour light-dark cycle, 22° C. room temperature, 55% relative humidity, food and water available ad libitum. All manipulations were done in accordance with the local regulations (European Union Directive 2010/63/EU). […]
Fatigue was evaluated in a treadmill consisting of a motorized conveyor belt divided into two parallel sectors, each with an electrified grid. […] The value recorded during the last 15 minutes of each test (and the times it falls on the grid) is recorded. […]

6-OHDA rat model [4] = test: Sucrose preference test (anhedonia, depression); type: in vivo; settings: 6-OHDA rats; 50 mg/kg daily intragastric; 7 weeks after surgery, 3 weeks of treatment
Text: as §1, §2, §3
(§5) Rats positive in the apomorphine-induced rotation test (20 animals) were included in the study, together with 20 sham-operated controls. Golexanolone treatment (50 mg/kg, daily, intragastric) and vehicle treatment as negative controls started 4 weeks after surgery. […]

6-OHDA rat model [5] = test: Object location memory test (OLM); type: in vivo; settings: 6-OHDA rats; 50 mg/kg daily intragastric; 6 weeks after surgery, 2 weeks of treatment
Text: as §1, §2
(§6) At a rate of 1 μl/min, sham animals received 2 μl of 0.2 mg/ml ascorbic acid in 0.9% NaCl, and 6-OHDA animals were injected with 2 μl 6-OHDA hydrochloride (4 μg/μl) with 0.2 mg/ml ascorbic acid in 0.9% NaCl. After injection the syringe was left in place for 10 minutes to allow diffusion. […]
The object location memory test (OLM) evaluates spatial location memory. […] The time exploring each object is analyzed. The discrimination ratio is calculated: (Time exploring new object location-time exploring old located object)/total time exploring the objects. […]

astrocytes = test: Astrocytes activation in striatum (GFAP stained area); type: in vivo, rat; settings: 6-OHDA rats treated with golexanolone; 5 weeks after surgery; mean±SEM; untreated 6-OHDA rats 123±10%
Text: as §1, §2, §3, §4
Astrocytes activation was assessed at 5 weeks after surgery, by measuring the total GFAP stained area with Image J software. Results were expressed as percentage of shams.
Astrocyte activation in the striatum was analysed by immunohistochemistry. […]

6-OHDA rat model [6] = test: CatWalk test, initial dual stance; type: in vivo; settings: 6-OHDA rats; 50 mg/kg daily intragastric
Text: as §1, §2, §6
(§7) The CatWalk™ system measures various aspects of locomotor pattern. Based on the position, pressure, and surface area of each footfall, multiple parameters are calculated. […] Paw print designations were assigned and data analysed using the CatWalk analysis software (v 7.1)
Initial dual stance was evaluated in the catwalk test. […]

6-OHDA rat model [7] = test: CatWalk test, locomotor gait swing; type: in vivo; settings: 6-OHDA rats; 50 mg/kg daily intragastric; 7 weeks after surgery, 3 weeks of treatment
Text: as §1, §2, §6, §7
Locomotor gait swing was evaluated in the catwalk test. […]

6-OHDA rat model [8] = test: Motor coordination, Motorater test (horizontal ladder); type: in vivo; settings: 6-OHDA rats; 50 mg/kg daily intragastric; 7 weeks after surgery, 3 weeks of treatment; versus control rats
Text: as §1, §2
At a rate of 1 μl/min, sham animals received 2 μl of 0.2 mg/ml ascorbic acid in 0.9% NaCl, and 6-OHDA animals were injected with 2 μl 6-OHDA hydrochloride (4 μg/μl) with 0.2 mg/ml ascorbic acid in 0.9% NaCl. […]
Motor coordination was tested with the Motorater test (Zörner B, Filli L, Starkey M L, Gonzenbach R, Kasper H, Röthlisberger M, et al. Profiling locomotor recovery: comprehensive quantification of impairments after CNS damage in rodents. Nat Methods. 2010; 7(9): pp. 701-708). […] The performance is recorded from the bottom by a mobile high-speed camera at 200 frames per second. Failures to set a foot on the ladder stairs are quantified.

α-synuclein = α-synuclein content in striatum by Western blot; type: in vivo, rat; settings: 6-OHDA rats treated with golexanolone, 10 weeks after surgery, mean±SEM, untreated 6-OHDA rats 195±35%
Text: as §1, §2, §6
α-synuclein content was analyzed by Western blot. […] Membranes were scanned using the ScanJet 5300C (Hewlett-Packard, Amsterdam, the Netherlands) and band intensities were quantified using Alpha Imager 2200 version 3.1.3 (Alpha Innotech Corporation). Results were expressed as percentage of shams. […]

[9] = tested on: tyrosine hydroxylase (TH); test: Tyrosine hydroxylase content in striatum, immunohistochemistry; type: in vivo, rat; settings: 6-OHDA rats treated with golexanolone; 5 weeks after surgery; mean±SEM; untreated 6-OHDA rats 36±4%
Text: as §1, §2, §3, §5
Tyroxine hydroxylase (TH) was analysed according to Heo et al (Curr Biol. 2020 Jan. 20; 30(2): pp. 276-291). […]

microglia = test: Microglia activation in striatum (perimeter of Iba1 stained cells); type: in vivo, rat; settings: 6-OHDA rats treated with golexanolone; 5 weeks after surgery; mean±SEM; untreated 6-OHDA 217±8, shams 254±1
Text: as §1, §2, §3, §4
In this Parkinson's Disease test model, microglia activation was analyzed by measuring the perimeter of individual Iba1 stained cells with IpWin2 software at 5 weeks after surgery.

Structure (SMILES): C#C[C@]1(O)CC[C@@]2(C)C(CC[C@@H]3[C@@H]2CC[C@]2(C)/C(=N/O)CC[C@@H]32)C1 (stereo partly drawn) [golexanolone, 3α-ethynyl-3β-hydroxyandrostan-17-one oxime]
- Anxiety (time in the central zone of open arena) (6-OHDA rat model [1]): improves anxiety
- All AIMs (axial, limb, orolingual and locomotive) during three hours [2]: less AIMs
- Fatigue (time in the treadmill, time in shock) (6-OHDA rat model [3]): improved fatigue
- Depression (anhedonia, sucrose preference) (6-OHDA rat model [4]): improves depression
- Object location memory (discrimination ratio) (6-OHDA rat model [5]): improves object location memory
- Astrocyte activation: total GFAP stained area in the injured striatum (astrocytes): 92±4 % of shams
- Initial dual stance in the CatWalk test (6-OHDA rat model [6]): improves initial dual stance
- Locomotor gait swing in the CatWalk test (6-OHDA rat model [7]): improved swing
- Errors crossing the horizontal ladder (failures to set a foot on the ladder stairs) (6-OHDA rat model [8]): made less errors
- Level of α-synuclein in the injured striatum (α-synuclein): 99±9 % of shams
- TH staining in the striatum [9]: 62±11 % of shams
- Microglia activation: perimeter of individual Iba1 stained cells in the injured striatum (microglia): 250±8 μm
